The IC50 is the concentration that gives 50% inhibition. Low readings indicate higher potency, high ones lower potency.

This is an account of results in US9365572B2, “PI3K and/or mTOR inhibitor” (XUANZHU PHARMA CO., LTD., priority 2012, dated 2016).

Structures are written as SMILES.

One data set deals with Interleukin IL-1 (Mus musculus (Mouse), UniProt P13504). Description: Radioligand binding assay No. 243520. To be noted: test substance 10 μM, read-out: Inhibitory rate (%), Interleukin IL-1.
Sequence of Interleukin IL-1 (P13504 20-576): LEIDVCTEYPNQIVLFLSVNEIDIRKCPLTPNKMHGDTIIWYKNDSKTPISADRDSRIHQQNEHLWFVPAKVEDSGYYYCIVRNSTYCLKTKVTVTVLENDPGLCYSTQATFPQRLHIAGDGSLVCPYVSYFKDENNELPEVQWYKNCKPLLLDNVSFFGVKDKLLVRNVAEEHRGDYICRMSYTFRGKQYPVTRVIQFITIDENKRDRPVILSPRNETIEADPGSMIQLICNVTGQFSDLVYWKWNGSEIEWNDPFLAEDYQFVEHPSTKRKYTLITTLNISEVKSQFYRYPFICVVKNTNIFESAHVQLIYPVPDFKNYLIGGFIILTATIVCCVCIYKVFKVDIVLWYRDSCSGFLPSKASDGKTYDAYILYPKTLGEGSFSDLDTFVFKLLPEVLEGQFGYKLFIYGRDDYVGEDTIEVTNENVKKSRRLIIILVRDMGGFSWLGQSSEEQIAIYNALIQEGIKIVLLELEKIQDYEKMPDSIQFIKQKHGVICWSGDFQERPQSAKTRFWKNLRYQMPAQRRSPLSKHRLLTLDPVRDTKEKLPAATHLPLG
A further data set addresses Potassium Channel hERG (Homo sapiens (Human), UniProt Q12809). Nature of the data set: Radioligand binding assay No. 265900. Particulars: test substance 10 μM, read-out: Inhibitory rate (%), Potassium Channel hERG. Background: hERG is a cardiac potassium channel; its block is linked to QT prolongation.
The next data set deals with Histamine H2 (Homo sapiens (Human), UniProt P25021). Nature of the data set: Radioligand binding assay No. 239710. To be noted: test substance 10 μM, read-out: Inhibitory rate (%), Histamine H2.
Sequence of Histamine H2 (P25021 whole entry): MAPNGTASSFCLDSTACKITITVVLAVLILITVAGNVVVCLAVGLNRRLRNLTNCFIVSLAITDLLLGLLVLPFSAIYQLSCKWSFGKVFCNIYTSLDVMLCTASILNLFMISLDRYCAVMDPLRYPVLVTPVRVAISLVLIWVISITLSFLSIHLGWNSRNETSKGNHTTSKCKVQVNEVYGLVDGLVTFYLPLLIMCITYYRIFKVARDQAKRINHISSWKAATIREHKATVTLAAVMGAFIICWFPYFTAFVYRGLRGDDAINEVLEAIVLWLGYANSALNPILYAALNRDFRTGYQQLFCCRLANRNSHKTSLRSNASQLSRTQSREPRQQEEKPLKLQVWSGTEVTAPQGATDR
Data set [1] addresses Serotonin (5-Hydroxytryptamine) 5-HT3 (Homo sapiens (Human), UniProt P46098). Nature of the data set: Radioligand binding assay No. 271910. Particulars: test substance 10 μM, read-out: Inhibitory rate (%), Serotonin (5-Hydroxytryptamine) 5-HT3.
A further data set deals with A498. Description: In vitro cytological inhibitory activity (XTT). It is filed as cell-based. To be noted: Homo sapiens, 72 hrs. The protocol: A498: Human renal carcinoma cell line.
(§1) 1. Preparation of agents and compounds:
(§2) • 1.1 Preparation of phosphoric acid buffering solution (PBS): 8 g NaCl, 0.2 g KCl, 1.44 g Na2HPO4 and 0.24 g KH2PO4 were weighed and added to 800 mL ultrapure water. The mixture was adjusted to pH=7.4, and ultrapure water was added to the metered volume of IL. Then the autoclaving was conducted for 20 mins. • 1.2 Preparation of XTT detection working solution: 100 mg (2,3-Bis-(2-methoxy-4-nitro-5-sulfophenyl)-2H-tetrazolium-5-carboxanilide); 2,3-bis(2-methoxy-4-nitro-5-sulfophenyl)-5-[(phenylamino)carbonyl]-2H-tetrazolium hydroxide (XTT) powder was weighed, and dissolved under protection from light 300 mL of phenol red-free and serum-free RPMI1640 culture, which had been warmed up to 50° C. The resulting mixture was filtered, packaged and used immediately or in one week. The complete process was conducted under protection from light. • 1.3 Preparation of the test compound • Preparation of the stock solution of the test compound: The test compound powder was dissolved in DMSO in a concentration of 10 mM. • Preparation of the gradiently diluted solution of the test compound: 10 mM of the stock solution of the test compound was successively and gradiently diluted with DMSO by 4 folds for 10 concentrations. […]
In general terms: Tetrazolium dyes change colour on reduction, which living cells bring about.

In a further data set the target is Sigmaσ1 (Homo sapiens (Human), UniProt Q99720). Nature of the data set: Radioligand binding assay No. 278110. To be noted: test substance 10 μM, read-out: Inhibitory rate (%), Sigmaσ1.
Sequence of Sigmaσ1 (Q99720 whole entry): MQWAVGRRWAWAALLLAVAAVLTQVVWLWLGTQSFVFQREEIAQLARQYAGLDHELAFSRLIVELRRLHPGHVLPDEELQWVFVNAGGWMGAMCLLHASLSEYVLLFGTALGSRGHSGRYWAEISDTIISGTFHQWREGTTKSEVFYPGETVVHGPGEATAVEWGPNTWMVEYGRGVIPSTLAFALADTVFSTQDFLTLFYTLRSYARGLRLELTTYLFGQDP
Data set [2] has as its target Transporter, Serotonin (5-Hydroxytryptamine) (SERT) (Homo sapiens (Human), UniProt P31645). Nature of the data set: Radioligand binding assay No. 274030. To be noted: test substance 10 μM, read-out: Inhibitory rate (%), Transporter, Serotonin (5-Hydroxytryptamine) (SERT).
A further data set concerns the target Dopamine D2S (Homo sapiens (Human), UniProt P14416). Nature of the data set: Radioligand binding assay No. 219700. To be noted: test substance 10 μM, read-out: Inhibitory rate (%), Dopamine D2S.
Another data set addresses Opiate μ(OP3, MOP) (Homo sapiens (Human), UniProt P35372). Nature of the data set: Radioligand binding assay No. 260410. To be noted: test substance 10 μM, read-out: Inhibitory rate (%), Opiate μ(OP3, MOP).
The target in a further data set is Adenosine A2A (Homo sapiens (Human), UniProt P29274). Description: Radioligand binding assay No. 200610. To be noted: test substance 10 μM, read-out: Inhibitory rate (%), Adenosine A2A.
Another data set deals with Histamine H3 (Homo sapiens (Human), UniProt Q9Y5N1). Description: Radioligand binding assay No. 239820. Particulars: test substance 10 μM, read-out: Inhibitory rate (%), Histamine H3.
Sequence of Histamine H3 (Q9Y5N1 whole entry): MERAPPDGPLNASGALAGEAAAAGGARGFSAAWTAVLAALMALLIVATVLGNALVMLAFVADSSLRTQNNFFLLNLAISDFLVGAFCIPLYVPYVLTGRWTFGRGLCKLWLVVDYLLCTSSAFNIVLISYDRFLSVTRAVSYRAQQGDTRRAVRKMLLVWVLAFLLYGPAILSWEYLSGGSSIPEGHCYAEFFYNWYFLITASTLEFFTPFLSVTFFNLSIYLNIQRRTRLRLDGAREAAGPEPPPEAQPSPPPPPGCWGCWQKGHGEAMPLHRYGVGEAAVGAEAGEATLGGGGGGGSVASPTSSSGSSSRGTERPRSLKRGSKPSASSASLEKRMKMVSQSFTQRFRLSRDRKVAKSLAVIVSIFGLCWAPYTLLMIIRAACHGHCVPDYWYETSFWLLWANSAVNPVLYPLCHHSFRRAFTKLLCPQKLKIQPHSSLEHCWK
The target in data set [3] is Nicotinic Acetylcholine α1, Bungarotoxin (Homo sapiens (Human), UniProt P02708+P07510+Q07001). Description: Radioligand binding assay No. 258700. Particulars: read-out: Inhibitory rate (%), Nicotinic Acetylcholine α1, Bungarotoxin.
A further data set deals with Adenosine A1 (Homo sapiens (Human), UniProt P30542). Nature of the data set: Radioligand binding assay No. 200510. Particulars: test substance 10 μM, read-out: Inhibitory rate (%), Adenosine A1.
Sequence of Adenosine A1 (P30542 whole entry): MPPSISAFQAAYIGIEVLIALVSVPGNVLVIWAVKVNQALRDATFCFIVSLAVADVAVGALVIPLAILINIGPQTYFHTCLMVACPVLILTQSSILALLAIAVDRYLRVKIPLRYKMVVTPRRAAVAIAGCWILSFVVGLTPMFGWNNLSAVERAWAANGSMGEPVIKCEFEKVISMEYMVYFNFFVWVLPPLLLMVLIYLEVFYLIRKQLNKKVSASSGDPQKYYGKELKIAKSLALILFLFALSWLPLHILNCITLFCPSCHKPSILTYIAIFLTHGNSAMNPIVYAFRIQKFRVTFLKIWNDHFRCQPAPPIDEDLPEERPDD
The target of the next data set is Muscarinic M2 (Homo sapiens (Human), UniProt P08172). Nature of the data set: Radioligand binding assay No. 252710. Particulars: test substance 10 μM, read-out: Inhibitory rate (%), Muscarinic M2.
Sequence of Muscarinic M2 (P08172 whole entry): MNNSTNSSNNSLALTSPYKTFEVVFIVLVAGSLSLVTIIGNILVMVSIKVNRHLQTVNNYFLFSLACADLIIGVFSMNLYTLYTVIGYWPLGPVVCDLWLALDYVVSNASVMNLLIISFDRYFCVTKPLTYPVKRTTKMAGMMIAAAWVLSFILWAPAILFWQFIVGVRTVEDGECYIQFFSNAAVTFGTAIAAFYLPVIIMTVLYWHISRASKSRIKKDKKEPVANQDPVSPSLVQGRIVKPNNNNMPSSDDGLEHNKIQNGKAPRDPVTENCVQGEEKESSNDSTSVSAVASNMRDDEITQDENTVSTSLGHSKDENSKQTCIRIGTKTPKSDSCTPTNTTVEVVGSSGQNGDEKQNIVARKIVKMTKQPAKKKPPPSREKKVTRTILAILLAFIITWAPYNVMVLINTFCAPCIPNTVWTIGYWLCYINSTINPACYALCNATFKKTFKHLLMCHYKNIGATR
The next data set deals with Thyroid Hormone. Nature of the data set: Radioligand binding assay No. 285900. To be noted: test substance 10 μM; rat.
The next data set has as its system U87MG. Nature of the data set: In vitro cytological inhibitory activity (XTT). The format is cell-based. To be noted: Homo sapiens, U-87 MG, 72 hrs. The protocol: U87MG: Human brain astrocytoblast cell line;
as §1, §2

Sequence of Potassium Channel hERG (Q12809 whole entry): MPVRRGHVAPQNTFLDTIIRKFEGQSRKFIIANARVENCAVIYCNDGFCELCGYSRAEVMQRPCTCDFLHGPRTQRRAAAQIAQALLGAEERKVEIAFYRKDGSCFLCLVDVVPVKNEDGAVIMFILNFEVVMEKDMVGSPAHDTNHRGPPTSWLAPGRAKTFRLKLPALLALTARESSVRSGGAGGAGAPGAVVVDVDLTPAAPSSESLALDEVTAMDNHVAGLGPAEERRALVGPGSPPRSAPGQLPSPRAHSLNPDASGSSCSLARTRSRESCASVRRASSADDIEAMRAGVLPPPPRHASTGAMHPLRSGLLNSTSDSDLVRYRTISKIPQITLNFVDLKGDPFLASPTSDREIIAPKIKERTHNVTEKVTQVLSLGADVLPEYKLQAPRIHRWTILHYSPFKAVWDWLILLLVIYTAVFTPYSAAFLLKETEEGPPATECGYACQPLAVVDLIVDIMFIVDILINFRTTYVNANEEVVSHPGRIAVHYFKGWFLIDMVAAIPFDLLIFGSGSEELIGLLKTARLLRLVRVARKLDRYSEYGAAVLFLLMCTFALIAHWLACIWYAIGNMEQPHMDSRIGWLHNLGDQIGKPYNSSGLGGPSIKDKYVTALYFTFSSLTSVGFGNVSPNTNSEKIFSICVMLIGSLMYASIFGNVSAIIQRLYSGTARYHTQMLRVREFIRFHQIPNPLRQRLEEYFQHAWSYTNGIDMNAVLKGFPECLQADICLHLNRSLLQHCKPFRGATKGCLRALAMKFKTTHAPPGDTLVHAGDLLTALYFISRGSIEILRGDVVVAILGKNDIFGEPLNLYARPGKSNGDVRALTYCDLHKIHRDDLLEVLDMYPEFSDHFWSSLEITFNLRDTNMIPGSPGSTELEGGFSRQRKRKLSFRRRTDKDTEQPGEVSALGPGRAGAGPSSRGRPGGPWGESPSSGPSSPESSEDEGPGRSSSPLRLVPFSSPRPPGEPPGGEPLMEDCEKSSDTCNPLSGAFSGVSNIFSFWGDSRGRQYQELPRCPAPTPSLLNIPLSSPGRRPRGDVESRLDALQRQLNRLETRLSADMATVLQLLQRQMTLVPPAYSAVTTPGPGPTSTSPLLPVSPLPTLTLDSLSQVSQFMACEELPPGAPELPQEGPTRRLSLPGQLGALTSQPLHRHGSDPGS
Sequence of Serotonin (5-Hydroxytryptamine) 5-HT3 (P46098 24-478): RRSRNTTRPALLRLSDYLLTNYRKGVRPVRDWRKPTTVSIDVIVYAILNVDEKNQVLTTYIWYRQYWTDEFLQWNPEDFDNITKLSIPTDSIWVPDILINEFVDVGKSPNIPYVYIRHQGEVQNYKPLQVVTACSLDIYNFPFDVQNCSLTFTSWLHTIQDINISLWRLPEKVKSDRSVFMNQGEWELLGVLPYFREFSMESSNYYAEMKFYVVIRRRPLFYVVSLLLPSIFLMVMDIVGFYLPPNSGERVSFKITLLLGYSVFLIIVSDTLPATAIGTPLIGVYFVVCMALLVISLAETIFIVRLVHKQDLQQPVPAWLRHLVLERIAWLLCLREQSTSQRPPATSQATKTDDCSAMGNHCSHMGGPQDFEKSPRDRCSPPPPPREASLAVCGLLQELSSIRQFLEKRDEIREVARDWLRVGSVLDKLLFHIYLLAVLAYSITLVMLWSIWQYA
Sequence of Dopamine D2S (P14416 other isoform, or with tags, fused parts or gaps): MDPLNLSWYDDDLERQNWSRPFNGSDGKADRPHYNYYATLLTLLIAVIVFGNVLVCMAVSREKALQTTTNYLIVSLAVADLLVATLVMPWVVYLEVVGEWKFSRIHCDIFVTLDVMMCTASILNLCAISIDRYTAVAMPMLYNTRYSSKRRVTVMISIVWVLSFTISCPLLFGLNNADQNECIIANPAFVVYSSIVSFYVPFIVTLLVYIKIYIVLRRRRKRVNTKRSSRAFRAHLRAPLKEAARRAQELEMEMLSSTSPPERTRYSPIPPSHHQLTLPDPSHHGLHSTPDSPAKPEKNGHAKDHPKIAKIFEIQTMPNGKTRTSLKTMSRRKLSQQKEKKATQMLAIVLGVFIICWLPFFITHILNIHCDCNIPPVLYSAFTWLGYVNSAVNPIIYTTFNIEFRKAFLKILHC
Sequence of Opiate μ(OP3, MOP) (P35372 whole entry): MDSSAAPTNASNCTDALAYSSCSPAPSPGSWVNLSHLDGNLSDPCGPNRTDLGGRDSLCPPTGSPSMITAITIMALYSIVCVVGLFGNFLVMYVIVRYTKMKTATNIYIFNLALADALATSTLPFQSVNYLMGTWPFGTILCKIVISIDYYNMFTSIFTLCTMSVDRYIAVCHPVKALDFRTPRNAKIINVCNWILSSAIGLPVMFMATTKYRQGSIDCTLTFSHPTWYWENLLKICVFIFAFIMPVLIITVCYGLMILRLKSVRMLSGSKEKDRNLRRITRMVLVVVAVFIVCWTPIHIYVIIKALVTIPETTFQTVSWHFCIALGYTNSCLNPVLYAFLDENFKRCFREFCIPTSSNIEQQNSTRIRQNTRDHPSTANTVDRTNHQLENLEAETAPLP

For `Nc1ccc(-c2ccc3ncc4c(=O)[nH]c(=O)n(-c5cccc(C(F)(F)F)c5)c4c3n2)cn1` [Compound 5, 9-(6-aminopyridin-3-yl)-1-(3-(trifluoromethyl)phenyl)pyrimido[5,4-c][1,5]naphthyridine-2,4(1H,3H)-dione], the inhibition at 10 µM on Interleukin IL-1 is 11%; on Potassium Channel hERG, 2%; on Histamine H2, -2%; in data set [1] it was 8%; at Sigmaσ1, 13%; in [2] it was 6%. Besides, the inhibition at 10 µM at Dopamine D2S stood at 14%; at Opiate μ(OP3, MOP) it was 2%; at Adenosine A2A, 0%; at Histamine H3, 16%; in data set [3], 4%; at Adenosine A1, 20%. In addition, the inhibition at 10 µM on Muscarinic M2 is -4%. In the data set with A498, this compound came in with an IC50 of 83.7 nM. The “Inhibitory rate (%), Thyroid Hormone” value with Thyroid Hormone was found to be 9%.

As for `O=c1[nH]c(=O)n(-c2cccc(C(F)(F)F)c2)c2c1cnc1ccc(-c3cnc4[nH]ccc4c3)nc12` [Compound 30, 9-(1H-pyrrolo[2,3-b]pyridin-5-yl)-1-(3-(trifluoromethyl)phenyl)pyrimido[5,4-c][1,5]naphthyridine-2,4(1H,3H)-dione], in the data set on U87MG, the half-inhibitory concentration (IC50) is 28.3 nM.
